From patent US20260317319A1, “NOVEL ERGOLINES AND METHODS OF TREATING MOOD DISORDERS” (Gilgamesh Pharma Inc., priority 2023, published 2026)

Key:
[1] = test system: C57BL/6 mice; experiment: Automated mouse head twitch response (HTR) assay (video tracking); assay type: in vivo; settings: sc; for # HTR/20 min at Most Efficacious Dose: 20 min recording, at each compound's most efficacious dose (35*, 43*, 44*: suppressed below vehicle 14.5, dose is that of least suppression); for # HTR/20 min at Most Efficacious Dose / Peak HTR/min at Most Efficacious Dose: mean; for Most Efficacious Dose for Peak HTR/min: dose giving highest peak HTR/min (35*, 43*, 44*: dose that resulted in the least suppression); for Most Efficacious Dose for # HTR/20 min: dose giving most HTR/20 min (35*, 43*, 44*: dose that resulted in the least suppression); for Peak HTR/min at Most Efficacious Dose: rate over 2-min bins, at each compound's most efficacious dose (35*, 43*, 44*: suppressed below vehicle 1.62, dose is that of least suppression)
Procedure, shortened: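 Adult male C57BL/6 mice (8-10 weeks, 18-25 g) received a single drug dose and were video-recorded in a small open field for 20 min immediately after dosing. HTR events were detected automatically from periodic ear-position deviations above preset thresholds. Values are total HTR counts over 20 min and HTR/min in 2-min bins, mean±SEM.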

[2] = test system: C57BL/6 mice; experiment: Mouse head twitch response (HTR) assay (observer-counted); assay type: in vivo; settings: SC, 20 min, most efficacious dose
[3] = target: T1, 5-HT2B receptor (Homo sapiens, UniProt P41595); experiment: 5-HT2B receptor radioligand binding ([3H]LSD); settings: read-out: 5-HT2B Receptor Ki
T1 construct: expressed in transfected cells; host or cells: HEK293, stably transfected

[4] = target: T2, 5-HT2C receptor (Homo sapiens, UniProt P28335); experiment: Ca2+ flux functional assay at 5-HT2C (WuXi 5-HT2C protocol); assay type: cell-based; set-up: expressed in transfected cells; settings: for Emax: agonist, tested using WuXi 5-HT2C protocol, max dose, read-out: 5-HT2C % Act @ Max Dose (* WuXi protocol)
T2 sequence (P28335 33-458): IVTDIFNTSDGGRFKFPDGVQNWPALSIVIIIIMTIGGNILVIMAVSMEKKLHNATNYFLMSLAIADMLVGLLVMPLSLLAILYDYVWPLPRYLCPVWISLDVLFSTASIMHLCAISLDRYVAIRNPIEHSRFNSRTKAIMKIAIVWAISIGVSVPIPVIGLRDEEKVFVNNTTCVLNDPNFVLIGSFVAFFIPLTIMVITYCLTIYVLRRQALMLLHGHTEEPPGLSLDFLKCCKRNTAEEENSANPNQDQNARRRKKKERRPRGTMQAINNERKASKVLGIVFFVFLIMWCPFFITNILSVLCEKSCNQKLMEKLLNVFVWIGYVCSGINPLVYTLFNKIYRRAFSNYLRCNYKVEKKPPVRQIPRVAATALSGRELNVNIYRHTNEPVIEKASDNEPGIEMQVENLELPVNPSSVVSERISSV
Procedure, shortened: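 Agonist mode FLIPR Ca2+ flux in stably transfected cells loaded with Fluo-4 Direct dye and 2.5 mM probenecid (final), 50 min at 37 °C. Compounds tested as 10-point 1:3.16 dilutions; fluorescence read after addition.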

T1 sequence (P41595 whole entry): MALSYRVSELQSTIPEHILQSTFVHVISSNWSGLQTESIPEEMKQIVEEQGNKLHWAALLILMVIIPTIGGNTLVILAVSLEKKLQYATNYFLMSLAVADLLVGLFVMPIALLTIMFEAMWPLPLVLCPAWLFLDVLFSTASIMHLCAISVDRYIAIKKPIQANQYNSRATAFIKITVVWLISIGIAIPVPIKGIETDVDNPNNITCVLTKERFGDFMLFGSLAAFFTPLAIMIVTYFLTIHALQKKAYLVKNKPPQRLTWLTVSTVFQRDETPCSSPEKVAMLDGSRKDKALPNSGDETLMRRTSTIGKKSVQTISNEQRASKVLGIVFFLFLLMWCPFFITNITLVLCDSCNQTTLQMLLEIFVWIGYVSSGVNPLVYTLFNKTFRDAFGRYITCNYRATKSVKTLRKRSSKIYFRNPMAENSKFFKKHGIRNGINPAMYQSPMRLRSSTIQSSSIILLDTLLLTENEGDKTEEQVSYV

| Compound | # HTR/20 min at Most Efficacious Dose [1] [HTR/20 min] | Most Efficacious Dose for Peak HTR/min [1] | Most Efficacious Dose for # HTR/20 min [1] | Peak HTR/min at Most Efficacious Dose [1] [HTR/min] | HTR at most efficacious dose (bound) [2] [HTR] | Ki [3] [nM] | EC50 [4] [µM] | Emax [4] [%] |
| --- | --- | --- | --- | --- | --- | --- | --- | --- |
| C=CCN1C[C@H](C(=O)N[C@H](C)CC)C=C2c3cccc4[nH]cc(c34)C[C@H]21 [Compound 8, (6aR,9R)-7-allyl-N—((R)-sec-butyl)-4,6,6a,7,8,9-hexahydroindolo[4,3-fg]quinoline-9-carboxamide] | 21.375 | (3.2) mg/kg, sc | (1) mg/kg, sc | 2.14 | > 15 |  |  |  |
| CCN(CC)C(=O)[C@@H]1C=C2c3cccc4[nH]cc(c34)C[C@H]2N(Cc2cccc(OC)c2)C1 [Compound 18, (6aR,9R)—N,N-diethyl-7-(3-methoxybenzyl)-4,6,6a,7,8,9-hexahydroindolo[4,3-fg]quinoline-9-carboxamide] | 7.62 | (0.1) mg/kg, sc | (3.2) mg/kg, sc | 1.12 |  | 188 |  |  |
| CCN(CC)C(=O)[C@@H]1C=C2c3cccc4[nH]cc(c34)C[C@H]2N(Cc2ccc(OC)cc2)C1 [Compound 19, (6aR,9R)—N,N-diethyl-7-(4-methoxybenzyl)-4,6,6a,7,8,9-hexahydroindolo[4,3-fg]quinoline-9-carboxamide] | 9.50 | (1) mg/kg, sc | (10) mg/kg, sc | 1.31 |  | 225 |  |  |
| CCN(CC)C(=O)[C@@H]1C=C2c3cccc4[nH]cc(c34)C[C@H]2N(Cc2ccc(F)cc2)C1 [Compound 49, (6aR,9R)—N,N-diethyl-7-(4-fluorobenzyl)-4,6,6a,7,8,9-hexahydroindolo[4,3-fg]quinoline-9-carboxamide] |  |  |  |  |  | 16.9 | > 10 | 1.32 |
| CCN(CC)C(=O)[C@@H]1C=C2c3cccc4[nH]cc(c34)C[C@H]2N(Cc2ccc(Cl)cc2)C1 [Compound 50, (6aR,9R)-7-(4-chlorobenzyl)-N,N-diethyl-4,6,6a,7,8,9-hexahydroindolo[4,3-fg]quinoline-9-carboxamide] |  |  |  |  |  | 53.7 | > 10 | 1.08 |
| CCN(C)C(=O)[C@@H]1C=C2c3cccc4[nH]cc(c34)C[C@H]2N(Cc2ccccc2)C1 [Compound 85, (6aR,9R)-7-benzyl-N-ethyl-N-methyl-4,6,6a,7,8,9-hexahydroindolo[4,3-fg]quinoline-9-carboxamide] | 6.625 | (0.32) mg/kg, sc | (0.32) mg/kg, sc | 0.33 |  | 32.4 | > 10 | 16.3 |
| CC[C@@H](C)NC(=O)[C@@H]1C=C2c3cccc4[nH]cc(c34)C[C@H]2N(C)C1 [Int8] | 23.625 | (0.32) mg/kg, sc | (0.32) mg/kg, sc | 2.06 | < 15 |  |  |  |
